Patent US20220306695A1, “COMPSTATIN ANALOGUES AND THEIR MEDICAL USES” (priority 2019, published 2022)
pIC50: −log10 of the molar value. Where two headings read alike, the source gives them in different places. Positions of bridges follow the written chain, without caps; N, C: chain ends. Non-standard residues stand in square brackets, D forms with d. Residues, ends and D or L forms follow the SMILES beside them. *: point of attachment. Trp(1-Me) = Cn1cc(C[C@H](N)C(=O)O)c2ccccc21; C18 diacid = O=C(O)CCCCCCCCCCCCCCCCC(=O)*; 2Nal = N[C@@H](Cc1ccc2ccccc2c1)C(=O)O; Sar = CNCC(=O)O

Tests used:
[1] = system: classical complement pathway; assay: In vitro haemolysis assay (inhibition of classical complement pathway); type: cell-based, human; details: for IC50: Table 3, human serum, sensitized sheep red blood cells, read-out: IC50[nM], in vitro analysis of inhibition of hemolysis
Method in brief: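 Serially diluted compound (9 points) was preincubated 15 min at room temperature with diluted human serum, titrated per batch to give 70-90% maximal haemolysis, in Tris/casein buffer pH 7.4 with Mg2+/Ca2+. Antibody-sensitized sheep erythrocytes were then added for 30 min at 37° C, and the reaction was stopped with EDTA. Haemolysis was read at A405, with IC50 from 4PL fit.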

[2] = Solubility test at 10 mg/mL (visual inspection and light scattering); type: physicochemical; details: for Solubility, Condition 1 Acetate pH 4: 10 mg/mL compound in 100 mM acetate pH 4; for Solubility, Condition 2 Acetate pH 5: 10 mg/mL compound in 100 mM acetate pH 5; for Solubility, Condition 3 Phosphate pH 6: 10 mg/mL compound in 100 mM phosphate pH 6; for Solubility, Condition 4 Phosphate pH 7: 10 mg/mL compound in 100 mM phosphate pH 7; for Solubility, Condition 5 Phosphate pH 7.5: 10 mg/mL compound in 100 mM phosphate pH 7.5

Row | SMILES | IC50 [1] [nM] | pIC50 ([1]; Table 4, valine 3 versus isoleucine 3 pairs, read-out: CP hemolysis IC50) | Solubility, Condition 1 Acetate pH 4 [2] | Solubility, Condition 2 Acetate pH 5 [2] | Solubility, Condition 3 Phosphate pH 6 [2] | Solubility, Condition 4 Phosphate pH 7 [2] | Solubility, Condition 5 Phosphate pH 7.5 [2]
1 | CC[C@H](C)[C@H](NC(=O)[C@H](C)NC(=O)[C@H](CO)NC(=O)[C@H](CO)NC(=O)[C@H](CCC(=O)O)NC(C)=O)C(=O)N[C@H]1CSSC[C@@H](C(=O)N[C@H](C(N)=O)[C@@H](C)O)NC(=O)[C@H](CCCNC(=N)N)NC(=O)[C@H](Cc2c[nH]cn2)NC(=O)[C@H](CCC(=O)O)NC(=O)CNC(=O)[C@H](Cc2c[nH]c3ccccc23)NC(=O)[C@H](CC(=O)O)NC(=O)[C@H](CCC(N)=O)NC(=O)[C@H](Cc2c[nH]c3ccccc23)NC(=O)[C@H]([C@@H](C)CC)NC1=O [Compound 3] (Ac-ESSAICIWQDWGEHRCT-NH2; disulfide 6-16) | < 100 | 7.16 | + (denotes solubility at the given condition, as determined by UV absorbance being less than 0.1 AU at 340 nm and the sample being clear when manually inspected.) | − (denotes lack of solubility at the given condition, as UV absorbance at 340 nm exceeds 0.1 AU and/or it is visibly turbid or contains particles.) | − (denotes lack of solubility at the given condition, as UV absorbance at 340 nm exceeds 0.1 AU and/or it is visibly turbid or contains particles.) | + (denotes solubility at the given condition, as determined by UV absorbance being less than 0.1 AU at 340 nm and the sample being clear when manually inspected.) | + (denotes solubility at the given condition, as determined by UV absorbance being less than 0.1 AU at 340 nm and the sample being clear when manually inspected.)
2 | CC[C@H](C)[C@@H]1NC(=O)[C@@H](NC(=O)[C@H](Cc2ccccc2)NC(=O)[C@H](CCC(=O)O)NC(=O)[C@H](CO)NC(C)=O)CSSC[C@@H](C(=O)N[C@H](C(=O)NCC(=O)N[C@@H](C)C(=O)N[C@@H](CCC(=O)O)C(=O)N[C@@H](CO)C(N)=O)[C@@H](C)O)NC(=O)[C@H](CCCNC(=N)N)NC(=O)[C@H](Cc2c[nH]cn2)NC(=O)[C@H](CCC(=O)O)NC(=O)CNC(=O)[C@H](Cc2c[nH]c3ccccc23)NC(=O)[C@H](CC(=O)O)NC(=O)[C@H](CCC(N)=O)NC(=O)[C@H](Cc2cn(C)c3ccccc23)NC1=O [Compound 67] (Ac-SEFCI[Trp(1-Me)]QDWGEHRCTGAES-NH2; disulfide 4-14) | < 100 | – | − (denotes lack of solubility at the given condition, as UV absorbance at 340 nm exceeds 0.1 AU and/or it is visibly turbid or contains particles.) | − (denotes lack of solubility at the given condition, as UV absorbance at 340 nm exceeds 0.1 AU and/or it is visibly turbid or contains particles.) | + (denotes solubility at the given condition, as determined by UV absorbance being less than 0.1 AU at 340 nm and the sample being clear when manually inspected.) | + (denotes solubility at the given condition, as determined by UV absorbance being less than 0.1 AU at 340 nm and the sample being clear when manually inspected.) | + (denotes solubility at the given condition, as determined by UV absorbance being less than 0.1 AU at 340 nm and the sample being clear when manually inspected.)
3 | CC[C@H](C)[C@@H]1NC(=O)[C@@H](NC(=O)[C@H](Cc2ccc(O)cc2)NC(=O)[C@H](CCC(=O)O)NC(=O)[C@H](CO)NC(=O)CNC(=O)[C@H](CCC(=O)O)NC(=O)CCCCCCCCCCCCCCCCC(=O)O)CSSC[C@@H](C(=O)N(C)CC(=O)N[C@@H](CCC(=O)O)C(N)=O)NC(=O)[C@H](CCCNC(=N)N)NC(=O)[C@H](Cc2c[nH]cn2)NC(=O)[C@H](CCC(=O)O)NC(=O)CNC(=O)[C@H](Cc2c[nH]c3ccccc23)NC(=O)[C@H](CC(=O)O)NC(=O)[C@H](CCC(N)=O)NC(=O)[C@H](Cc2cn(C)c3ccccc23)NC1=O [Compound 108] ({C18 diacid}-EGSEYCI[Trp(1-Me)]QDWGEHRC[Sar]E-NH2; disulfide 6-16) | < 500 | – | − (denotes lack of solubility at the given condition, as UV absorbance at 340 nm exceeds 0.1 AU and/or it is visibly turbid or contains particles.) | − (denotes lack of solubility at the given condition, as UV absorbance at 340 nm exceeds 0.1 AU and/or it is visibly turbid or contains particles.) | + (denotes solubility at the given condition, as determined by UV absorbance being less than 0.1 AU at 340 nm and the sample being clear when manually inspected.) | + (denotes solubility at the given condition, as determined by UV absorbance being less than 0.1 AU at 340 nm and the sample being clear when manually inspected.) | + (denotes solubility at the given condition, as determined by UV absorbance being less than 0.1 AU at 340 nm and the sample being clear when manually inspected.)
4 | CC[C@H](C)[C@@H]1NC(=O)[C@@H](NC(=O)[C@@H](NC(=O)[C@H](CCC(=O)O)NC(=O)[C@H](CO)NC(C)=O)[C@@H](C)CC)CSSC[C@@H](C(=O)N[C@H](C(=O)N[C@@H](CCC(=O)O)C(=O)N[C@@H](C)C(N)=O)[C@@H](C)O)NC(=O)[C@H](CCCNC(=N)N)NC(=O)[C@H](Cc2c[nH]cn2)NC(=O)[C@H](CCC(=O)O)NC(=O)CNC(=O)[C@H](Cc2c[nH]c3ccccc23)NC(=O)[C@H](CC(=O)O)NC(=O)[C@H](CCC(N)=O)NC(=O)[C@H](Cc2c[nH]c3ccccc23)NC1=O [Compound 32] (Ac-SEICIWQDWGEHRCTEA-NH2; disulfide 4-14) | < 100 | – | − (denotes lack of solubility at the given condition, as UV absorbance at 340 nm exceeds 0.1 AU and/or it is visibly turbid or contains particles.) | − (denotes lack of solubility at the given condition, as UV absorbance at 340 nm exceeds 0.1 AU and/or it is visibly turbid or contains particles.) | − (denotes lack of solubility at the given condition, as UV absorbance at 340 nm exceeds 0.1 AU and/or it is visibly turbid or contains particles.) | + (denotes solubility at the given condition, as determined by UV absorbance being less than 0.1 AU at 340 nm and the sample being clear when manually inspected.) | + (denotes solubility at the given condition, as determined by UV absorbance being less than 0.1 AU at 340 nm and the sample being clear when manually inspected.)
5 | CC[C@H](C)[C@@H]1NC(=O)[C@@H](NC(=O)[C@H](Cc2ccccc2)NC(=O)[C@H](C)NC(=O)[C@H](CO)NC(=O)CNC(=O)[C@H](CCC(=O)O)NC(C)=O)CSSC[C@@H](C(=O)N[C@H](C(=O)N[C@@H](CCC(=O)O)C(N)=O)[C@@H](C)O)NC(=O)[C@H](CCCNC(=N)N)NC(=O)[C@H](Cc2c[nH]cn2)NC(=O)[C@H](CCC(=O)O)NC(=O)CNC(=O)[C@H](Cc2c[nH]c3ccccc23)NC(=O)[C@H](CC(=O)O)NC(=O)[C@H](CCC(N)=O)NC(=O)[C@H](Cc2ccc3ccccc3c2)NC1=O [Compound 60] (Ac-EGSAFCI[2Nal]QDWGEHRCTE-NH2; disulfide 6-16) | < 100 | – | − (denotes lack of solubility at the given condition, as UV absorbance at 340 nm exceeds 0.1 AU and/or it is visibly turbid or contains particles.) | − (denotes lack of solubility at the given condition, as UV absorbance at 340 nm exceeds 0.1 AU and/or it is visibly turbid or contains particles.) | + (denotes solubility at the given condition, as determined by UV absorbance being less than 0.1 AU at 340 nm and the sample being clear when manually inspected.) | + (denotes solubility at the given condition, as determined by UV absorbance being less than 0.1 AU at 340 nm and the sample being clear when manually inspected.) | + (denotes solubility at the given condition, as determined by UV absorbance being less than 0.1 AU at 340 nm and the sample being clear when manually inspected.)
6 | CC[C@H](C)[C@@H]1NC(=O)[C@@H](NC(=O)[C@H](Cc2ccccc2)NC(=O)[C@H](N)Cc2ccc(O)cc2)CSSC[C@@H](C(=O)N[C@H](C(=O)NCC(=O)N[C@@H](C)C(=O)N[C@@H](CCC(=O)O)C(=O)N[C@@H](CO)C(N)=O)[C@@H](C)O)NC(=O)[C@H](CCCNC(=N)N)NC(=O)[C@H](Cc2c[nH]cn2)NC(=O)[C@H](CCC(=O)O)NC(=O)CN(C)C(=O)[C@H](Cc2c[nH]c3ccccc23)NC(=O)[C@H](CC(=O)O)NC(=O)[C@H](CCC(N)=O)NC(=O)[C@H](Cc2cn(C)c3ccccc23)NC1=O [Compound 73, H-{d}YFC(1)I[1-Me-Trp]QDW[Sar]EHRC(1)TGAES-NH2] (H-[dY]FCI[Trp(1-Me)]QDW[Sar]EHRCTGAES-NH2; disulfide 3-13) | < 100 | – | + (denotes solubility at the given condition, as determined by UV absorbance being less than 0.1 AU at 340 nm and the sample being clear when manually inspected.) | − (denotes lack of solubility at the given condition, as UV absorbance at 340 nm exceeds 0.1 AU and/or it is visibly turbid or contains particles.) | − (denotes lack of solubility at the given condition, as UV absorbance at 340 nm exceeds 0.1 AU and/or it is visibly turbid or contains particles.) | + (denotes solubility at the given condition, as determined by UV absorbance being less than 0.1 AU at 340 nm and the sample being clear when manually inspected.) | + (denotes solubility at the given condition, as determined by UV absorbance being less than 0.1 AU at 340 nm and the sample being clear when manually inspected.)
